Entries after “also recorded” stand apart in the source; their conditions may differ.
Columns and labels:
[1] = Carboplatin toxicity in rat brain after CED (clinical, H&E, GFAP, DiI); assay type: in vivo
Procedure: Male Wistar rats (Charles River, UK) were group-housed and allowed to acclimatise prior to experimental procedures. Rats weighing 225 to 275 g were anaesthetised with an intraperitoneal dose of medetomidine (Dormitor; 0.4 mg/kg; Pfizer Animal Health, Kent, UK) and ketamine (Ketaset; 100 mg/kg; Pfizer, UK) and placed in a stereotactic frame (Stoelting Co, Wood Dale, Ill. USA). A linear incision was made between the glabella and the occiput and the skull exposed. Burr holes with a diameter of approximately 2 mm were drilled 1.0 mm anterior and 2.5 mm lateral to the bregma and cannulae were inserted to a depth of 2.5 mm below the dura. All cannulae were pre-primed with either saline or carboplatin and the desired dose prior to insertion into the brain. Every attempt was made to ensure that no air bubbles were present in the infusion cannula. Infusions of 2.5 μl of carboplatin at specific concentrations (outlined in Table 1) were conducted at a rate of 5 μl/min. Following infusion completion, the cannula was left in-situ for 10 min before being withdrawn at a rate of 1 mm/min. The wound was then closed with 5.0 Vicryl (Ethicon, Gargrave, UK) a dose of intramuscular buprenorphine was administered (Vetergesic; 0.03 mg/kg; Alstoe Animal Health, York, UK) and the anaesthetic was reversed with an intraperitoneal dose of atipamezole hydrochloride (Antisedan; 5 mg/kg; Pfizer, UK). At predetermined time-points (see Table 1), animals were perfusion fixed with 100 mL of PBS followed by 100 mL of 4% paraformaldehyde (PFA; Fisher Scientific, UK) in PBS (pH 7.4). The brain was then removed from the skull and placed in 4% PFA for 48 hours and then cryoprotected in 30% sucrose (Melford Laboratories, Ipswich, UK) in PBS prior to sectioning.
Rat brains were cut into 35 μm thick coronal sections using a Leica CM1850 cryostat (Leica Microsystems, Wetzlar, Germany) at −20° C. For haematoxylin and eosin staining, fixed sections were mounted on gelatine-subbed slides. Sections were submerged in 4% PFA for 20 minutes, dehydrated and then stained with haematoxylin and eosin (Cell Path, Hemel Hempstead, UK) according to standard protocols. Following this, sections were coverslipped with Pertex mounting medium (Cell Path, UK) and allowed to dry in the fumehood overnight before imaging with a Leica CTR 5500 microscope (Leica Microsystems, Germany). Sections were assessed by light microscopy to ensure that the cannula track in each brain terminated in the corpus callosum.
For fluorescent immunohistochemistry, free-floating sections were washed with PBS for 5 min×3. Sections were then blocked in PBS plus 0.1% triton-x-100 (Sigma Aldrich, UK) containing 10% normal donkey serum (Sigma Aldrich, UK) for 1 hour at RT. Sections were then washed with PBS for 5 min. […]

[2] = cited from earlier work
[3] = high-dose intravenous delivery; cited from earlier work
[4] = Glioma tissue concentration after high-dose intravenous delivery (Whittle et al.); assay type: in vivo
GBM = details: 4 consecutive sets of infusions at 0.03 mg/ml, assuming 50% kill per set
Procedure: This is a phase I, single centre, dose-escalation study, of carboplatin administered by CED, into the peritumoural region of patients with recurrent or progressive GBM, following tumour resection. The study will incorporate six cohorts, with three patients in each cohort.
Following tumour resection (study day 0), patients undergo a baseline MRI scan (study day 10-21), followed within 24 hours by catheter implantation. For patients with progressive multifocal disease in whom re-resection is not felt to be appropriate, catheters are implanted following a baseline MRI scan. Prior to catheter implantation, patients are loaded with phenytoin (unless allergic) and will be kept on this anticonvulsant during the duration of their infusions. In the event of allergy to phenytoin, patients are administered an alternative anticonvulsant during this time period. […] Catheter tip location is determined at the operating surgeon's discretion, and will be based on diffusion imaging-based fibre-tracking using iPlan Flow (Brainlab, Germany) and experience gained in animal models and previous patients. Up to four catheters are implanted per patient under general anaesthetic and attached to connector tubing, which will be tunnelled to a subcutaneous access device incorporating in-line bacterial filters, implanted in the infraclavicular fossa. […]

[5] = up to 0.9 mg/ml, vs 0.9% saline

N.N.O=C([O-])C1(C(=O)[O-])CCC1.[Pt+2] [carboplatin]
histological tissue toxicity (haematoxylin and eosin) ([1]; 0.03-0.9 mg/ml, up to 30 days): no histological evidence of tissue disruption; also recorded: No evidence of tissue toxicity | clinical tolerability / toxicity ([1]; single CED infusions, concentrations of up to 0.9 mg/ml): well tolerated; also recorded: no clinical or histological evidence of toxicity | gliosis in white matter (GFAP immunostaining) [1, 5]: minimal evidence of gliosis | white matter tract integrity (DiI staining) [1, 5]: no loss of white matter tract integrity | serum concentration ([2]; intracranial infusions of 0.25 mg/kg in primates): 6 ng/mL | clinical toxicity ([2]; one-month long brainstem infusions, 0.075 mg/kg): minimal clinical evidence of toxicity | peak glioma tissue concentration [3]: 0.013 mg/mL | peak glioma tissue concentration as share of IC50 (meta-analysis of chemosensitivity assays) [4]: 40% | theoretical tumour cell kill (GBM): 94%

Reference: patent publication US20160136284A1, “GLIOMA TREATMENT” (priority 2012, published 2016)
